Measurements: ChEMBL document CHEMBL4619773, “Chemoreactive-Inspired Discovery of Influenza A Virus Dual Inhibitor to Block Hemagglutinin-Mediated Adsorption and Membrane Fusion” (J Med Chem, 2020)

Tested on: Influenza A virus
Assay type: functional, organism-based

## CC(=O)c1cc(C)c(O)c(Cc2[nH]c3ccccc3c2Cc2c(O)c(C)cc(C(C)=O)c2O)c1O
  IC50: > 42 µg/mL
